Results: patent publication US20090018111A1, “Novel Antimicrobial Medicament” (priority 2004, published 2009)
Where two headings read alike, the source gives them in different places.

Columns and labels:
[1] = system: P. aeruginosa 15039; test: Sensitivity test (agar dilution), clinical isolate; format: cell-based, Pseudomonas aeruginosa
Method: (§1) In addition, the antibacterial activities were tested against strains which are comparatively less sensitive to β-lactam compounds, namely clinically isolated 13 strains of Acinetobacter calcoaceticus and Acinetobacter lwoffi, clinically isolated 11 strains of Serratia marcescens, clinically isolated 12 strains of Burkholderia cepacia, and clinically isolated 15 strains of Pseudomonas aeruginosa.
(§2) According to the standard method of Japan Chemotherapeutic Society (Chemotherapy, vol. […], p 76-79 (1981)) the test was carried out using the agar dilution method. After dissolving test samples in distilled water, agar medium containing the test samples was prepared in such a manner that the final concentration became twice serial dilution by pouring serially diluted combination drug solution or a single drug solution into agar medium. As agar medium was used Mueller Hinton Agar medium (MHA). Then, each strain was cultivated over night at 37° C. in an incubator and suspended in buffered saline solution with gelatin (BSG) in the concentration of about 10^6 CFU/ml. The suspension (about 5 μl) containing test strains was inoculated to the medium containing the test samples by Micro Planter.
(§3) Each drug was weighed, and dissolved in distilled water to give a test sample. When the drugs are used in combination, two kinds of solution containing each drug were mixed so as to be various ratio of concentration to give a mixed solution. When the sample is subjected to sensitivity test, this mixed solution was diluted by twice serial dilution method.
(§4) Furthermore, when the drug is solely used, each test sample was used as it is, and diluted by twice serial dilution method from the maximum concentration to the minimum concentration.

[2] = system: P. aeruginosa 15036; test: Sensitivity test (agar dilution), clinical isolate; format: cell-based, Pseudomonas aeruginosa
Method: as §1, §2, §3, §4

[3] = system: P. aeruginosa 13280; test: Sensitivity test (agar dilution), clinical isolate; format: cell-based, Pseudomonas aeruginosa
Method: as §1, §2, §3, §4

[4] = system: P. aeruginosa 13245; test: Sensitivity test (agar dilution), clinical isolate; format: cell-based, Pseudomonas aeruginosa
Method: as §1, §2, §3, §4

[5] = system: P. aeruginosa 13285; test: Sensitivity test (agar dilution), clinical isolate; format: cell-based, Pseudomonas aeruginosa
Method: as §1, §2, §3, §4

[6] = system: P. aeruginosa 12790; test: Sensitivity test (agar dilution), clinical isolate; format: cell-based, Pseudomonas aeruginosa
Method: as §1, §2, §3, §4

[7] = system: P. aeruginosa 15032; test: Sensitivity test (agar dilution), clinical isolate; format: cell-based, Pseudomonas aeruginosa
Method: as §1, §2, §3, §4

[8] = system: P. aeruginosa 12789; test: Sensitivity test (agar dilution), clinical isolate; format: cell-based, Pseudomonas aeruginosa
Method: as §1, §2, §3, §4

[9] = system: P. aeruginosa 13221; test: Sensitivity test (agar dilution), clinical isolate; format: cell-based, Pseudomonas aeruginosa
Method: as §1, §2, §3, §4

[10] = system: P. aeruginosa 13250; test: Sensitivity test (agar dilution), clinical isolate; format: cell-based, Pseudomonas aeruginosa
Method: as §1, §2, §3, §4

[11] = system: E. cloacae GN7471; test: Sensitivity test (agar dilution); format: cell-based, Enterobacter cloacae; conditions: Enterobacter cloacae
Method: The antibacterial activities were tested against various 18 bacteria (27 standard strains) which are representative bacteria caused clinically infectious disease (Staphylococcus aureus 3 strains, Staphylococcus epidermidis 1 strain, Micrococcus luteus 1 strain, Streptococcus pyogenes 1 strain, Enterococcus faecalis 1 strain, Enterococcus faecium 1 strain, Bacillus subtilis 1 strain, Escherichia coli 3 strains, Klebsiella pneumoniae 1 strain, Proteus mirabilis 1 strain, Proteus vulgaris 2 strains, Pseudomonas aeruginosa 3 strains, Serratia marcescens 2 strains, Enterobacter aerogenes 1 strain, Stenotrophomonas maltophilia 1 strain, Enterobacter cloacae 1 strain, Citrobacter freundii 1 strain, Moraxella catarrhalis 2 strains).
as §2
When the sample is subjected to sensitivity test, this mixed solution was diluted by twice serial dilution method.
as §4
FIC index based on MIC value was calculated. […] Namely, when FIC index calculated by the following formula is equal or less than 1, the enhanced effect of the combination drug in said ratio is considered as positive. When FIC index is over 1, the enhanced effect of the combination drug in said ratio is considered as negative.
Formula of FIC index: FIC index=(MIC of Drug A in combination/MIC of Drug A alone)+(MIC of Drug B in combination/MIC of Drug B alone) N.C. in tables means being not calculated.

[12] = Pseudomonas aeruginosa, 15039, Concomitant (ME:SM = 1:1)
[13] = Pseudomonas aeruginosa, 15039, Concomitant (ME:SM = 1:2)
[14] = Pseudomonas aeruginosa, 15039, Concomitant (ME:SM = 1:4)
[15] = Pseudomonas aeruginosa, 15039, Concomitant (ME:SM = 2:1)
[16] = Pseudomonas aeruginosa, 15039, alone
[17] = Pseudomonas aeruginosa, 15036, Concomitant (ME:SM = 1:1)
[18] = Pseudomonas aeruginosa, 15036, Concomitant (ME:SM = 1:2)
[19] = Pseudomonas aeruginosa, 15036, Concomitant (ME:SM = 1:4)
[20] = Pseudomonas aeruginosa, 15036, Concomitant (ME:SM = 2:1)
[21] = Pseudomonas aeruginosa, 15036, alone
[22] = Pseudomonas aeruginosa, 13280, Concomitant (ME:SM = 1:1)
[23] = Pseudomonas aeruginosa, 13280, Concomitant (ME:SM = 1:2)
[24] = Pseudomonas aeruginosa, 13280, Concomitant (ME:SM = 1:4)
[25] = Pseudomonas aeruginosa, 13280, Concomitant (ME:SM = 2:1)
[26] = Pseudomonas aeruginosa, 13280, alone
[27] = Pseudomonas aeruginosa, 13245, Concomitant (ME:SM = 1:1)
[28] = Pseudomonas aeruginosa, 13245, Concomitant (ME:SM = 1:2)
[29] = Pseudomonas aeruginosa, 13245, Concomitant (ME:SM = 1:4)
[30] = Pseudomonas aeruginosa, 13245, Concomitant (ME:SM = 2:1)
[31] = Pseudomonas aeruginosa, 13245, alone
[32] = Pseudomonas aeruginosa, 13285, Concomitant (ME:SM = 1:1)
[33] = Pseudomonas aeruginosa, 13285, Concomitant (ME:SM = 1:2)
[34] = Pseudomonas aeruginosa, 13285, Concomitant (ME:SM = 1:4)
[35] = Pseudomonas aeruginosa, 13285, Concomitant (ME:SM = 2:1)
[36] = Pseudomonas aeruginosa, 13285, alone
[37] = Pseudomonas aeruginosa, 12790, Concomitant (ME:SM = 1:1), read-out: MIC
[38] = Pseudomonas aeruginosa, 12790, Concomitant (ME:SM = 1:4), read-out: MIC
[39] = Pseudomonas aeruginosa, 12790, Concomitant (ME:SM = 2:1), read-out: MIC
[40] = Pseudomonas aeruginosa, 12790, alone, read-out: MIC
[41] = Pseudomonas aeruginosa, 15032, Concomitant (ME:SM = 1:1)
[42] = Pseudomonas aeruginosa, 15032, Concomitant (ME:SM = 1:2)
[43] = Pseudomonas aeruginosa, 15032, Concomitant (ME:SM = 1:4)
[44] = Pseudomonas aeruginosa, 15032, Concomitant (ME:SM = 2:1)
[45] = Pseudomonas aeruginosa, 15032, alone
[46] = Pseudomonas aeruginosa, 12789, Concomitant (ME:SM = 1:1)
[47] = Pseudomonas aeruginosa, 12789, Concomitant (ME:SM = 1:2)
[48] = Pseudomonas aeruginosa, 12789, Concomitant (ME:SM = 1:4)
[49] = Pseudomonas aeruginosa, 12789, Concomitant (ME:SM = 2:1)
[50] = Pseudomonas aeruginosa, 12789, alone
[51] = Pseudomonas aeruginosa, 13221, Concomitant (ME:SM = 1:4), read-out: MIC
[52] = Pseudomonas aeruginosa, 13221, Concomitant (ME:SM = 2:1), read-out: MIC
[53] = Pseudomonas aeruginosa, 13250, Concomitant (ME:SM = 1:1)
[54] = Pseudomonas aeruginosa, 13250, Concomitant (ME:SM = 1:2)
[55] = Pseudomonas aeruginosa, 13250, Concomitant (ME:SM = 1:4)
[56] = Pseudomonas aeruginosa, 13250, Concomitant (ME:SM = 2:1)
[57] = Pseudomonas aeruginosa, 13250, alone
[58] = GN7471, Concomitant (MEPM:SM = 1:1), read-out: MIC
[59] = GN7471, Concomitant (MEPM:SM = 1:2), read-out: MIC
[60] = GN7471, Concomitant (MEPM:SM = 1:4), read-out: MIC
[61] = GN7471, Concomitant drug (MEPM:SM = 2:1), read-out: MIC

Measured: MIC

C[C@@H](O)[C@H]1C(=O)N2C(C(=O)O)=C(S[C@@H]3CN[C@H](C(=O)N(C)C)C3)[C@H](C)[C@H]12 [MEPM, meropenem]
8 µg/mL: [1]; [12] | [1]; [13] | [1]; [15] | [1]; [16] | [3]; [25] | [3]; [26]
0.063 µg/mL: [6]; [37] | [6]; [38] | [6]; [40] | [9]; [51] | [9]; [52] | [11]; GN7471, alone, read-out: MIC
0.031 µg/mL: [6]; [39] | [11]; [58] | [11]; [59] | [11]; [60] | [11]; [61]
0.5 µg/mL: [8]; [46] | [8]; [47] | [8]; [48] | [8]; [49] | [8]; [50] | [10]; [53] | [10]; [55] | [10]; [56] | [10]; [57]
1 µg/mL: [2]; [18] | [4]; [28] | [7]; [42]
2 µg/mL: [2]; [17] | [2]; [19] | [2]; [20] | [2]; [21] | [4]; [27] | [4]; [29] | [4]; [30] | [4]; [31] | [7]; [41] | [7]; [43] | [7]; [44] | [7]; [45]
0.125 µg/mL: [6]; Pseudomonas aeruginosa, 12790 | [9]; Concomitant (ME:SM = 1:1) | [9]; Concomitant (ME:SM = 1:2) | [9]; Pseudomonas aeruginosa, 13221
4 µg/mL: [1]; [14] | [3]; [22] | [3]; [23] | [3]; [24] | [5]; [32] | [5]; [33] | [5]; [34] | [5]; [35] | [5]; [36]
0.25 µg/mL: [10]; [54]

C[C@H]1C=C(c2csc(SC3=C(C(=O)O)N4C(=O)[C@H]([C@@H](C)O)[C@H]4[C@H]3C)n2)CN1 [SM, (4R,5S,6S)-6-[(1R)-1-Hydroxyethyl]-4-methyl-3-({4-[(5S)-5-methyl-2,5-dihydro-1H-pyrrol-3-yl]-1,3-thiazol-2-yl}sulfanyl)-7-oxo-1-azabicyclo[3.2.0]hept-2-ene-2-carboxylic acid]
4 µg/mL: [1]; [15] | [3]; [22] | [3]; [25] | [5]; [32] | [6]; [40] | [11]; GN7471, Concomitant (AZT:SM = 1:1), E. cloacae GN7471, read-out: MIC concomitant
0.5 µg/mL: [8]; [46] | [10]; [53] | [10]; [54]
0.25 µg/mL: [6]; Pseudomonas aeruginosa, 12790, Concomitant (ME:SM = 1:2), read-out: MIC | [6]; [38] | [8]; [49] | [9]; Pseudomonas aeruginosa, 13221, Concomitant (ME:SM = 1:2), read-out: MIC | [9]; [51] | [10]; [56]
2 µg/mL: [2]; [17] | [2]; [18] | [4]; [27] | [4]; [28] | [5]; [35] | [7]; [41] | [7]; [42] | [8]; [48] | [10]; [55]
0.125 µg/mL: [9]; Pseudomonas aeruginosa, 13221, Concomitant (ME:SM = 1:1), read-out: MIC | [11]; GN7471, Concomitant (IPM:SM = 1:1), read-out: MIC | [11]; [60] | [11]; GN7471, Concomitant (PAPM:SM = 1:1), E. cloacae GN7471, read-out: MIC concomitant
1 µg/mL: [2]; [20] | [4]; [30] | [7]; [44] | [8]; [47]
0.031 µg/mL: [9]; [52] | [11]; GN7471, Concomitant (DRPM:SM = 1:1), E. cloacae GN7471, read-out: MIC concomitant | [11]; [58]
0.063 µg/mL: [6]; [37] | [11]; GN7471, Concomitant (BIPM:SM = 1:1), E. cloacae GN7471, read-out: MIC concomitant | [11]; [59]
16 µg/mL: [1]; [13] | [1]; [14] | [3]; [24] | [4]; [31] | [5]; [34] | [9]; Pseudomonas aeruginosa, 13221, alone, read-out: MIC
0.016 µg/mL: [6]; [39] | [11]; GN7471, Concomitant (CPFX:SM = 1:1), E. cloacae GN7471, read-out: MIC concomitant | [11]; [61]
32 µg/mL: [1]; [16] | [3]; [26] | [5]; [36]
8 µg/mL: [1]; [12] | [2]; [19] | [2]; [21] | [3]; [23] | [4]; [29] | [5]; [33] | [7]; [43] | [7]; [45] | [8]; [50] | [10]; [57] | [11]; GN7471, Concomitant (CAZ:SM = 1:1), E. cloacae GN7471, read-out: MIC concomitant | [11]; GN7471, Concomitant (PIPC:SM = 1:1), E. cloacae GN7471, read-out: MIC concomitant | [11]; GN7471, alone, read-out: MIC | [11]; GN7471, drug alone, E. cloacae GN7471, read-out: MIC alone
